What was measured:
Assay in all cases: two-electrode voltage clamp, Xenopus oocytes, inward current
Format in all cases: cell-based
HarmGR13 [1] = target: T1, HarmGR13 (Helicoverpa armigera, UniProt Z9NT97MFL8, D159A); conditions: Ringer's solution pH 7.6, -80 mV; 100 mM inositol
T1 construct: full-length, 436 aa; cDNA from larval maxillary galea; pCS2+ cRNA injected into Xenopus laevis oocytes; expressed alone
T1 sequence (Z9NT97MFL8 1-436 D159A): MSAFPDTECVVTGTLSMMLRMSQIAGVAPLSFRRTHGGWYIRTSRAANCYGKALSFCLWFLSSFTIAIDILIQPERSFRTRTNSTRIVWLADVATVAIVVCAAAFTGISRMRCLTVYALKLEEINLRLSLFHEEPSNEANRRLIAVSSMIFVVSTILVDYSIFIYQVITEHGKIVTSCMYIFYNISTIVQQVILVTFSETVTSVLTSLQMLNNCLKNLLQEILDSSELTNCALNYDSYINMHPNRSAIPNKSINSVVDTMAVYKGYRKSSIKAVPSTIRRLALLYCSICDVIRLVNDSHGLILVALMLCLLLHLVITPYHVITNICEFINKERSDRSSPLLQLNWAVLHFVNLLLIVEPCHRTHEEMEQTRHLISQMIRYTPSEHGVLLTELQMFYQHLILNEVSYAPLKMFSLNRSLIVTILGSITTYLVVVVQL

HarmGR13 [2] = target: T2, HarmGR13 (Helicoverpa armigera, UniProt Z9NT97MFL8); conditions: Ringer's solution pH 7.6, -80 mV; agonist; dose-response curve in Fig 5B, EC50 not given
T2 construct: full-length, 436 aa; cDNA from larval maxillary galea; pCS2+ cRNA injected into Xenopus laevis oocytes; expressed alone
T2 sequence (Z9NT97MFL8 1-436): T1 sequence (Z9NT97MFL8 1-436 D159A)

HarmGR13 [3] = target: T3, HarmGR13 (Helicoverpa armigera, UniProt Z9NT97MFL8, D92A); conditions: Ringer's solution pH 7.6, -80 mV; 100 mM inositol
T3 construct: full-length, 436 aa; cDNA from larval maxillary galea; pCS2+ cRNA injected into Xenopus laevis oocytes; expressed alone
T3 sequence (Z9NT97MFL8 1-436 D92A): T1 sequence (Z9NT97MFL8 1-436 D159A)

HarmGR13 [4] = target: T3, HarmGR13; conditions: Ringer's solution pH 7.6, -80 mV; 500 mM ribose
HarmGR13 [5] = target: T1, HarmGR13; conditions: Ringer's solution pH 7.6, -80 mV; 500 mM ribose

Row | Structure (SMILES) | inward current at 100 mM (HarmGR13 [1]) | threshold concentration (HarmGR13 [2]) [mM] | inward current at 100 mM (HarmGR13 [3]) | inward current at 500 mM (HarmGR13 [4]) | inward current at 500 mM (HarmGR13 [5])
1 | O[C@H]1[C@H](O)[C@@H](O)[C@H](O)[C@@H](O)[C@H]1O [myo-inositol] | each of three mutated HarmGR13 did not show any inward currents | 1 | each of three mutated HarmGR13 did not show any inward currents |  | 
2 | OC1OC[C@@H](O)[C@@H](O)[C@H]1O (stereo partly drawn) [ribose] |  | 10 |  | each of three mutated HarmGR13 did not show any inward currents | each of three mutated HarmGR13 did not show any inward currents

— PMC12165416, “HarmGR13 mediates myo-inositol taste perception in Helicoverpa armigera larvae” (PLOS Genetics, 2025)
